Read-outs that look alike come from different tables or passages of the source. Numbered stars: 1 amine (or outer) side, 2 acyl side, 3 side chain; on linkers, the order of the positions; unused ones are H or OH. Bridge positions count the residues as written; N and C are the ends. Square brackets hold non-standard residues; d marks the D form. Side chains are listed from the residue outwards. Peptide text beside a SMILES is read from it. * marks the point of attachment. TtdsdLys(DOTA)NH2 = NC(=O)[C@@H](CCCCNC(=O)CN1CCN(CC(=O)O)CCN(CC(=O)O)CCN(CC(=O)O)CC1)NC(=O)CCC(=O)NCCCOCCOCCOCCCN*; X7 = O=C(O)CN1CCN(CC(=O)O)CCN(CC(=O)NC2CCN(CC(=O)*)CC2)CCN(CC(=O)O)CC1; X3 = O=C(O)CN1CCN(CC(=O)O)CCN(CC(=O)NCCCOCCOCCOCCCN*)CCN(CC(=O)O)CC1; DOTA = O=C(O)CN1CCN(CC(=O)O)CCN(CC(=O)*)CCN(CC(=O)O)CC1; Phe(4-Cl) = N[C@@H](Cc1ccc(Cl)cc1)C(=O)O; NMeT = CN[C@H](C(=O)O)[C@@H](C)O; X1 = O=C(CC1CCN([*:1])CC1)[*:2]; Cit = NC(=O)NCCC[C@H](N)C(=O)O; αMeD = C[C@](N)(CC(=O)O)C(=O)O; NMeK = CN[C@@H](CCCCN)C(=O)O; Suc = O=C(CCC(=O)[*:2])[*:1]; Tle = CC(C)(C)[C@H](N)C(=O)O; Pyridin(2-yl) = c1ccc(*)nc1; Isovaleryl = CC(C)CC(=O)*; Nle = CCCC[C@H](N)C(=O)O; Orn = NCCC[C@H](N)C(=O)O; AEEA = NCCOCCOCC(=O)O; Aib = CC(C)(N)C(=O)O; CO = O=C([*:1])[*:2]; NHBu = CCCCN*
What was measured:
[1] = biological target: T1, PSMA-expressing C4-2 cells (Homo sapiens, UniProt Q04609); assay: FACS binding assay (competition with 50 nM PSM-0183); conditions: read-out: pIC50 [C4-2] CAT (converted)
T1 construct: PSMA-expressing C4-2 cells (ATCC, Cat. No. CRL-3314) were cultured in RPMI-1640; host or cells: C4-2 cells
T1 sequence (Q04609 whole entry): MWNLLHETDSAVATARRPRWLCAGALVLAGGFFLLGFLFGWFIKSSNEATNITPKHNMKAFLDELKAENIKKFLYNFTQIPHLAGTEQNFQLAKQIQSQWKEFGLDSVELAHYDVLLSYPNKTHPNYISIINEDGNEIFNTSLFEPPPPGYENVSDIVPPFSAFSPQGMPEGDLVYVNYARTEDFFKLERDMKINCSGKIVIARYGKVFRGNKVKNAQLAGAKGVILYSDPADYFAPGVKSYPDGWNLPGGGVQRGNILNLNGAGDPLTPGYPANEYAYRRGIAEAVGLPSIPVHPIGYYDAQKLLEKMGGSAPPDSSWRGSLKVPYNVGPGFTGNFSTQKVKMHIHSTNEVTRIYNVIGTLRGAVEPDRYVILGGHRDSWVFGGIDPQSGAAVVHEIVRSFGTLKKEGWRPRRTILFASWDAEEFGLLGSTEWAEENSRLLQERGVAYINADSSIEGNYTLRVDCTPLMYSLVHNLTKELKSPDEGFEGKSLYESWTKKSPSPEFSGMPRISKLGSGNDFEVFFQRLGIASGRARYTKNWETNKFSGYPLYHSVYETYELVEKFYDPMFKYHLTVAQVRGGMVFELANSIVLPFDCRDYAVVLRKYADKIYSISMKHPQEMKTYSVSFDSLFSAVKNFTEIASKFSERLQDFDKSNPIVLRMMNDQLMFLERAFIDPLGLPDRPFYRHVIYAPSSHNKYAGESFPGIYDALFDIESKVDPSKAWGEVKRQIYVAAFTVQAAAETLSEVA
Outline: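 Competition format: fluorescent tracer PSM-0183 (50 nM) displaced from PSMA on C4-2 cells by a test compound titration over 1 h at 4 °C. Bound tracer was quantified as flow-cytometric AF488 median fluorescence after washing. Four-parameter logistic fits of MFI data gave IC50 and pIC50.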

[2] = biological target: T2, Fc-fusion protein of human PSMA (hPSMA-Fc) (Homo sapiens, UniProt Q04609); assay: Surface plasmon resonance assay (Biacore T200, single cycle kinetic); assay type: binding; conditions: hPSMA-Fc, 25° C., read-out: pKD CAT (converted)
T2 construct: purchased Acro Biosystems PSA-H5264
T2 sequence (Q04609 44-750 limits assumed): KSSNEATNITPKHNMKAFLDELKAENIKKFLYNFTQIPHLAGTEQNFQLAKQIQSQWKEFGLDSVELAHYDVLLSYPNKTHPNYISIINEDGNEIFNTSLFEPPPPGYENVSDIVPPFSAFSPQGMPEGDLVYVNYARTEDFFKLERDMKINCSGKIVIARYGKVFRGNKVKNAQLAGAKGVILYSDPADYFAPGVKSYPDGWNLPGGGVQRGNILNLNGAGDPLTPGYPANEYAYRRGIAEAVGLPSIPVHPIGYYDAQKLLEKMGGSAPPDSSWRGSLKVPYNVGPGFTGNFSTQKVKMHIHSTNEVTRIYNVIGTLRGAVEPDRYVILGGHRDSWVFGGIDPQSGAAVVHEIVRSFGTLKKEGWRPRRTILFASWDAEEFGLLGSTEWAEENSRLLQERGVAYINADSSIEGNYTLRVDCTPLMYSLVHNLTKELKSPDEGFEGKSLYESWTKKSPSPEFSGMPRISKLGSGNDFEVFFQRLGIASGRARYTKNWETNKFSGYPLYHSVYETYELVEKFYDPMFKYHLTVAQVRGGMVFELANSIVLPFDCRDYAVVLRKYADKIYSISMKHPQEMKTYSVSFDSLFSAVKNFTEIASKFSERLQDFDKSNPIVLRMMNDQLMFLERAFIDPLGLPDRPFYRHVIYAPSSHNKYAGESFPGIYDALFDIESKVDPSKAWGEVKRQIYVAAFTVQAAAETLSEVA
Outline: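 KD, expressed as pKD, came from 1:1 Langmuir fits of reference- and buffer-blank-subtracted SPR data. The runs were single-cycle kinetics at 25° C in HBST/0.1% DMSO over human PSMA-Fc, captured to ~1000 RU on a peptide-coated CM5 surface and regenerated with 10 mM glycine pH 1.5.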

[3] = FACS binding, PSMA-expressing C4-2 cells, pIC50 category
[4] = pIC50 category of FACS binding, C4-2 cells
[5] = pKD category for PSMA SPR activity assay

IC50 [1, 3] [nM]	Kd ([2]; PSMA SPR assay, pKD category) [nM]	IC50 [1, 4] [nM]	Kd [2, 5] [nM]	Structure (SMILES)
< 200	< 12.6			CC(=O)N[C@H](C(=O)NC(C)(C)C(=O)N[C@@H](Cc1ccccc1)C(=O)N[C@H]1CSSC[C@@H](C(=O)N[C@H](C(=O)N[C@H](C(=O)N[C@@H](CC(=O)O)C(N)=O)[C@@H](C)O)C(C)(C)C)NC(=O)[C@H](CC(N)=O)NC(=O)[C@H](C)NC(=O)[C@H](CCCNC(N)=O)NC(=O)[C@H](CCCCN)NC1=O)[C@@H](C)O [PSM-0307, Ac-Thr-Aib-Pho-[Cys-Lys-Cit-Ala-Asn-Cys]-Tle-Thr-Asp-NH2] (Ac-T[Aib]FCK[Cit]ANC[Tle]TD-NH2; disulfide 4-9)
< 200	< 12.6			CC(C)CC(=O)NC(C)(C)C(=O)N[C@@H](Cc1ccc(Cl)cc1)C(=O)N[C@H]1CSSC[C@@H](C(=O)N[C@H](C(=O)N[C@H](C(N)=O)[C@@H](C)O)C(C)(C)C)NC(=O)[C@H](CC(N)=O)NC(=O)[C@H](CCCCNC(=O)CN2CCC(NC(=O)CN3CCN(CC(=O)O)CCN(CC(=O)O)CCN(CC(=O)O)CC3)CC2)NC(=O)[C@H](CCCNC(=N)N)NC(=O)[C@H](CCCCN)NC1=O [PSM-0353, Iva-Aib-Pcf-[Cys-Lys-Arg-Lys(DOTA-APAc)-Asn-Cys]-Tle-Thr-NH2] (Isovaleryl-[Aib][Phe(4-Cl)]CKRK(X7)NC[Tle]T-NH2; disulfide 3-8)
		< 200	< 12.6	CC(=O)NC(C)(C)C(=O)N[C@@H](Cc1ccccc1)C(=O)N[C@H]1CSSC[C@@H](C(=O)N[C@H](C(=O)N[C@H](C(=O)N[C@@H](CC(=O)O)C(N)=O)[C@@H](C)O)C(C)(C)C)NC(=O)[C@H](CC(N)=O)NC(=O)[C@H](C)NC(=O)[C@H](CCCNC(=N)N)NC(=O)[C@H](CCCCN)NC1=O [PSM-0506, Ac-Aib-Pho-[Cys-Lys-Arg-Ala-Asn-Cys]-Tle-Thr-Asp-NH2] (Ac-[Aib]FCKRANC[Tle]TD-NH2; disulfide 3-8)
		200 to 1260	12.6 to 126	CC(=O)N[C@H](C(=O)NC(C)(C)C(=O)N[C@@H](Cc1ccccc1)C(=O)N[C@H]1CSSC[C@@H](C(=O)N[C@H](C(=O)N[C@H](C(N)=O)[C@@H](C)O)C(C)(C)C)NC(=O)[C@H](CC(N)=O)NC(=O)C(C)(C)NC(=O)[C@H](CCCNC(=N)N)NC(=O)[C@H](CCCCN)N(C)C1=O)[C@@H](C)O [PSM-0451, Ac-Thr-Aib-Phe-[Cys-Nmk-Arg-Aib-Asn-Cys]-Tle-Thr-NH2] (Ac-T[Aib]FC[NMeK]R[Aib]NC[Tle]T-NH2; disulfide 4-9)
200 to 1260	12.6 to 126			CC(=O)N[C@H](C(=O)N[C@@H](C)C(=O)N[C@@H](Cc1ccccc1)C(=O)N[C@H]1CSSC[C@@H](C(=O)N[C@@H](CC(C)C)C(=O)N[C@H](C(=O)N[C@@H](CC(=O)O)C(=O)NCCCOCCOCCOCCCNC(=O)CCC(=O)N[C@H](CCCCNC(=O)CN2CCN(CC(=O)O)CCN(CC(=O)O)CCN(CC(=O)O)CC2)C(N)=O)[C@@H](C)O)NC(=O)[C@H](CC(N)=O)NC(=O)[C@H](C)NC(=O)[C@H](CCCNC(=N)N)NC(=O)[C@H](CCCCN)NC1=O)[C@@H](C)O [PSM-0330, Ac-Thr-Ala-Phe-[Cys-Lys-Arg-Ala-Asn-Cys]-Leu-Thr-Asp-Ttds-lys(DOTA)-NH2] (Ac-TAFCKRANCLTD-{TtdsdLys(DOTA)NH2}; disulfide 4-9)
		< 200	12.6 to 126	CCCCNC(=O)N[C@H](C(=O)NC(C)(C)C(=O)N[C@@H](Cc1ccc(Cl)cc1)C(=O)N[C@H]1CSSC[C@@H](C(=O)N[C@H](C(=O)N[C@H](C(=O)N2CCC(CC(=O)N[C@H](CCCCNC(=O)CN3CCN(CC(=O)O)CCN(CC(=O)O)CCN(CC(=O)O)CC3)C(N)=O)CC2)[C@@H](C)O)C(C)(C)C)NC(=O)[C@H](CC(N)=O)NC(=O)C(C)(C)NC(=O)[C@H](CCCNc2ccccn2)NC(=O)[C@H](CCCCN)NC1=O)[C@@H](C)O [PSM-0427, nBuCAyl-Thr-Aib-Pcf-[Cys-Lys-Opy-Aib-Asn-Cys]-Tle-Thr-Cmp-lys(DOTA)-NH2] ({NHBu-CO}-T[Aib][Phe(4-Cl)]CK[Orn](Pyridin(2-yl))[Aib]NC[Tle]T[X1][dK](DOTA)-NH2; disulfide 4-9)
		200 to 1260	12.6 to 126	C[C@@H](O)[C@H](NC(=O)[C@@H](NC(=O)[C@@H]1CSSC[C@H](NC(=O)[C@H](Cc2ccccc2)NC(=O)C(C)(C)NC(=O)[C@@H](NC(=O)CCC(=O)NCCCOCCOCCOCCCNC(=O)CN2CCN(CC(=O)O)CCN(CC(=O)O)CCN(CC(=O)O)CC2)[C@@H](C)O)C(=O)N[C@@H](CCCCN)C(=O)N[C@@H](CCC(N)=O)C(=O)NC(C)(C)C(=O)N[C@@H](CC(N)=O)C(=O)N1)C(C)(C)C)C(N)=O [PSM-0521, DOTA-Ttds-Thr-Aib-Phe-[Cys-Lys-Gln-Aib-Asn-Cys]-Tle-Thr-NH2] ({X3-Suc}-T[Aib]FCKQ[Aib]NC[Tle]T-NH2; disulfide 4-9)
< 200	< 12.6			C[C@@H](O)[C@H](NC(=O)[C@@H](NC(=O)[C@@H]1CSSC[C@H](NC(=O)[C@H](Cc2ccc(Cl)cc2)NC(=O)C(C)(C)NC(=O)[C@@H](NC(=O)CC2CCN(C(=O)CN3CCN(CC(=O)O)CCN(CC(=O)O)CCN(CC(=O)O)CC3)CC2)[C@@H](C)O)C(=O)N[C@@H](CCCCN)C(=O)N[C@@H](CCCNC(=N)N)C(=O)N[C@@](C)(CC(=O)O)C(=O)N[C@@H](CC(N)=O)C(=O)N1)C(C)(C)C)C(N)=O [PSM-0302, DOTA-Cmp-Thr-Aib-Pcf-[Cys-Lys-Arg-Amd-Asn-Cys]-Tle-Thr-NH2] ({DOTA}-[X1]T[Aib][Phe(4-Cl)]CKR[αMeD]NC[Tle]T-NH2; disulfide 5-10)
		< 200	< 12.6	CC(=O)N[C@H](C(=O)NC(C)(C)C(=O)N[C@@H](Cc1ccc(Cl)cc1)C(=O)N[C@H]1CSSC[C@@H](C(=O)N[C@H](C(=O)N[C@H](C(N)=O)[C@@H](C)O)C(C)(C)C)NC(=O)[C@H](CC(N)=O)NC(=O)[C@H](CCCCNC(=O)COCCOCCNC(=O)CN2CCN(CC(=O)O)CCN(CC(=O)O)CCN(CC(=O)O)CC2)NC(=O)[C@H](CCCNC(=N)N)NC(=O)[C@H](CCCCN)NC1=O)[C@@H](C)O [PSM-0370, Ac-Thr-Aib-Pcf-[Cys-Lys-Arg-Lys(DOTA-020c)-Asn-Cys]-Tle-Thr-NH2] (Ac-T[Aib][Phe(4-Cl)]CKRK([AEEA-DOTA])NC[Tle]T-NH2; disulfide 4-9)
200 to 1260	12.6 to 126			CC(=O)NC(=N)NCCC[C@@H]1NC(=O)[C@H](CCCCN)NC(=O)[C@@H](NC(=O)[C@H](Cc2ccc(Cl)cc2)NC(=O)C(C)(C)NC(C)=O)CSSC[C@@H](C(=O)N[C@H](C(=O)N[C@H](C(=O)N2CCC(CC(=O)N[C@H](CCCCNC(=O)CN3CCN(CC(=O)O)CCN(CC(=O)O)CCN(CC(=O)O)CC3)C(N)=O)CC2)[C@@H](C)O)C(C)(C)C)NC(=O)[C@H](CC(N)=O)NC(=O)C(C)(C)NC1=O [PSM-0298, Ac-Aib-Pcf-[Cys-Lys-Arg(Ac)-Aib-Asn-Cys]-Tle-Thr-Cmp-lys(DOTA)-NH2] (Ac-[Aib][Phe(4-Cl)]CKR(Ac)[Aib]NC[Tle]T[X1][dK](DOTA)-NH2; disulfide 3-8)
		200 to 1260	126 to 501	C[C@H](NC(=O)[C@H]([C@@H](C)O)N(C)C(=O)CC1CCN(C(=O)CN2CCN(CC(=O)O)CCN(CC(=O)O)CCN(CC(=O)O)CC2)CC1)C(=O)N[C@@H](Cc1ccc(Cl)cc1)C(=O)N[C@H]1CSSC[C@@H](C(=O)N[C@H](C(=O)N[C@H](C(N)=O)[C@@H](C)O)C(C)(C)C)NC(=O)[C@H](CC(N)=O)NC(=O)C(C)(C)NC(=O)[C@H](CCCNC(=N)N)NC(=O)[C@H](CCCCN)NC1=O [PSM-0455, DOTA-Cmp-Nmt-Ala-Pcf-[Cys-Lys-Arg-Aib-Asn-Cys]-Tle-Thr-NH2] ({DOTA}-[X1][NMeT]A[Phe(4-Cl)]CKR[Aib]NC[Tle]T-NH2; disulfide 5-10)
		< 200	< 12.6	CC(=O)NC(C)(C)C(=O)N[C@@H](Cc1ccc(Cl)cc1)C(=O)N[C@H]1CSSC[C@@H](C(=O)N[C@H](C(=O)N[C@H](C(=O)N[C@H](CCCCNC(=O)CN2CCN(CC(=O)O)CCN(CC(=O)O)CCN(CC(=O)O)CC2)C(N)=O)[C@@H](C)O)C(C)(C)C)NC(=O)[C@H](CC(N)=O)NC(=O)C(C)(C)NC(=O)[C@H](CCCNC(=N)N)NC(=O)[C@H](CCCCN)NC1=O [PSM-0404, Ac-Aib-Pcf-[Cys-Lys-Arg-Aib-Asn-Cys]-Tle-Thr-lys(DOTA)-NH2] (Ac-[Aib][Phe(4-Cl)]CKR[Aib]NC[Tle]T[dK](DOTA)-NH2; disulfide 3-8)
		< 200	< 12.6	CCCC[C@H](NC(=O)[C@@H]1CSSC[C@H](NC(=O)[C@H](Cc2ccccc2)NC(=O)C(C)(C)NC(=O)[C@@H](NC(C)=O)[C@@H](C)O)C(=O)N[C@@H](CCCCN)C(=O)N[C@@H](CCCNC(=N)N)C(=O)N[C@@H](C)C(=O)N[C@@H](CC(N)=O)C(=O)N1)C(=O)N[C@H](C(=O)N[C@@H](CC(=O)O)C(N)=O)[C@@H](C)O [PSM-0501, Ac-Thr-Aib-Phe-[Cys-Lys-Arg-Ala-Asn-Cys]-Nle-Thr-Asp-NH2] (Ac-T[Aib]FCKRANC[Nle]TD-NH2; disulfide 4-9)

Reference: patent publication US20260083865A1, “PROSTATE SPECIFIC MEMBRANE ANTIGEN (PSMA) LIGANDS AND USE THEREOF” (priority 2022, published 2026)
